In PubChem BioAssay (NCI):
Where “and” joins values, the source holds several entries; their conditions need not be identical. Equal values may be shown once.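 In this assay, cells in 96-well plates receive the compound at five concentrations for 48 hours. Endpoints are linearly interpolated between the surrounding concentrations. At the GI50, growth is halved. TGI denotes the concentration required for complete inhibition of growth.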

What was measured:
Assay in all cases: growth of human tumour cells (NCI), 48 h
RXF 393 renal = test system: RXF 393 renal
CAKI-1 renal = test system: CAKI-1 renal
HL-60(TB) leukemia = test system: HL-60(TB) leukemia
BT-549 breast = test system: BT-549 breast
MCF7 breast = test system: MCF7 breast
SF-295 CNS = test system: SF-295 CNS
SR leukemia = test system: SR leukemia
OVCAR-5 ovarian = test system: OVCAR-5 ovarian
NCI-H226 lung = test system: NCI-H226 lung
HCT-116 colon = test system: HCT-116 colon

## Cc1ccc(N(CC(=O)Nc2ccc(S(=O)(=O)N3CCC(N4CCCC4)CC3)cc2)S(=O)(=O)c2ccc(Cl)cc2)cc1
RXF 393 renal
  GI50: 1.16 µM
  TGI: 2.78 µM
CAKI-1 renal
  GI50: 1.65 µM
  TGI: 3.31 µM
HL-60(TB) leukemia
  GI50: 1.73 µM
  TGI: 4.33 µM
BT-549 breast
  GI50: 1.68 µM
  TGI: 3.31 µM
MCF7 breast
  GI50: 1.6 µM
  TGI: 3.6 µM
SF-295 CNS
  GI50: 1.74 µM
  TGI: 3.42 µM
SR leukemia
  GI50: 0.3 µM
  TGI: 0.856 µM

## S=C(c1c[nH]c2ccccc12)N1CCN(Cc2ccccc2)CC1
RXF 393 renal
  TGI: 30.9 µM
CAKI-1 renal
  TGI: 56.1 µM
OVCAR-5 ovarian
  TGI: 30.5 µM
HL-60(TB) leukemia
  TGI: 44 µM
NCI-H226 lung
  TGI: 35.9 µM
BT-549 breast
  TGI: 32.4 µM
MCF7 breast
  TGI: 46.7 µM
SF-295 CNS
  TGI: 29 µM
HCT-116 colon
  TGI: 29.1 µM
SR leukemia
  TGI: 47.9 µM

## CC1=Nc2sc3c(c2C2=NCCN12)CCCC3
RXF 393 renal
  TGI: 61 µM
CAKI-1 renal
  TGI: 50.6 µM
OVCAR-5 ovarian
  TGI: 92 µM
HL-60(TB) leukemia
  TGI: 61 µM
NCI-H226 lung
  TGI: 31.2 µM
BT-549 breast
  TGI: 43.4 µM
MCF7 breast
  TGI: 48.1 µM
SF-295 CNS
  TGI: 98.7 µM
HCT-116 colon
  TGI: 44.7 µM
SR leukemia
  TGI: 65.2 µM

## Cc1cc(S(=O)(=O)Nc2nc(N)nc(N(C)C)n2)c(SCC(=O)O)cc1Cl
RXF 393 renal
  TGI: > 10 µM
CAKI-1 renal
  TGI: > 10 µM
OVCAR-5 ovarian
  TGI: > 10 µM
HL-60(TB) leukemia
  TGI: > 10 µM
NCI-H226 lung
  TGI: > 10 µM
BT-549 breast
  TGI: > 10 µM
MCF7 breast
  TGI: > 10 µM
SF-295 CNS
  TGI: > 10 µM
HCT-116 colon
  TGI: > 10 µM
SR leukemia
  TGI: > 10 µM

## CCOC(=O)C(NC(=O)c1ccccc1)(N1CCOCC1)C(F)(F)F (configuration not stated)
RXF 393 renal
  TGI: > 100 µM
CAKI-1 renal
  TGI: > 100 µM
OVCAR-5 ovarian
  TGI: > 100 µM
HL-60(TB) leukemia
  TGI: > 100 µM
NCI-H226 lung
  TGI: > 100 µM
BT-549 breast
  TGI: > 100 µM
MCF7 breast
  TGI: > 100 µM
SF-295 CNS
  TGI: > 100 µM
HCT-116 colon
  TGI: > 100 µM
SR leukemia
  TGI: > 100 µM

## Cc1ccc(NC(=O)CSc2nc(=O)[nH]c3nc[nH]c23)cc1
RXF 393 renal
  TGI: > 100 µM
CAKI-1 renal
  TGI: > 100 µM
OVCAR-5 ovarian
  TGI: > 100 µM
HL-60(TB) leukemia
  TGI: > 100 µM
NCI-H226 lung
  TGI: > 100 µM
BT-549 breast
  TGI: > 100 µM
MCF7 breast
  TGI: > 100 µM
SF-295 CNS
  TGI: > 100 µM
HCT-116 colon
  TGI: > 100 µM
SR leukemia
  TGI: > 100 µM

## CCCCCCCCCCCCCCCC(=O)N(CCCCCCCCCCC(=O)O)CC(O)C(O)C(OC1OC(CO)C(O)C(O)C1O)C(O)CO (configuration not stated)
RXF 393 renal
  TGI: > 100 µM
CAKI-1 renal
  TGI: > 100 µM
OVCAR-5 ovarian
  TGI: > 100 µM
HL-60(TB) leukemia
  TGI: 47.7 µM
NCI-H226 lung
  TGI: > 100 µM
BT-549 breast
  TGI: 68 µM
MCF7 breast
  TGI: > 100 µM
SF-295 CNS
  TGI: 33.4 µM
HCT-116 colon
  TGI: > 100 µM
SR leukemia
  TGI: 49.9 µM

## CCCCCCCCCCCCCCCCOC[C@@H](COC(c1ccccc1)(c1ccccc1)c1ccccc1)O[P+](=S)OC (some centres not stated)
RXF 393 renal
  TGI: 22.7 µM
CAKI-1 renal
  TGI: 23.8 µM
OVCAR-5 ovarian
  TGI: 28.7 µM
HL-60(TB) leukemia
  TGI: 36 µM
NCI-H226 lung
  TGI: 42.5 µM
BT-549 breast
  TGI: 16.7 µM
MCF7 breast
  TGI: 31 µM
SF-295 CNS
  TGI: 6.88 µM
HCT-116 colon
  TGI: 14.1 µM
SR leukemia
  TGI: 5.46 µM

## C=C1C(=O)O[C@@H]2C=C(C)C3=CC(=O)[C@](C)(C[C@H](OC(=O)/C(C)=C\C)[C@@H]12)O3
RXF 393 renal
  TGI: 1.52 µM
CAKI-1 renal
  TGI: 1.38 µM
OVCAR-5 ovarian
  TGI: 3.86 µM
HL-60(TB) leukemia
  TGI: 0.563 µM
NCI-H226 lung
  TGI: 4.99 µM
BT-549 breast
  TGI: 1.98 µM
MCF7 breast
  TGI: 1.63 µM
SF-295 CNS
  TGI: 6.47 µM
HCT-116 colon
  TGI: 0.868 µM
SR leukemia
  TGI: 0.786 µM

## O=C(O)CC1NCc2cc3ccccc3nc21 (configuration not stated)
RXF 393 renal
  TGI: > 100 µM
CAKI-1 renal
  TGI: > 100 µM
OVCAR-5 ovarian
  TGI: > 100 µM
HL-60(TB) leukemia
  TGI: > 100 µM
NCI-H226 lung
  TGI: > 100 µM
BT-549 breast
  TGI: > 100 µM
MCF7 breast
  TGI: > 100 µM
SF-295 CNS
  TGI: > 100 µM
HCT-116 colon
  TGI: > 100 µM
SR leukemia
  TGI: > 100 µM

## CN(/N=C/c1ccnc2ccccc12)c1ccc(Cl)cc1[N+](=O)[O-]
RXF 393 renal
  TGI: > 100 µM
CAKI-1 renal
  TGI: > 100 µM
OVCAR-5 ovarian
  TGI: > 100 µM
HL-60(TB) leukemia
  TGI: > 100 µM
NCI-H226 lung
  TGI: > 100 µM
BT-549 breast
  TGI: > 100 µM
MCF7 breast
  TGI: > 100 µM
SF-295 CNS
  TGI: > 100 µM
HCT-116 colon
  TGI: > 100 µM
SR leukemia
  TGI: > 100 µM

## COc1cc2c(=O)cnoc2cc1O
RXF 393 renal
  TGI: > 100 µM
CAKI-1 renal
  TGI: > 100 µM
OVCAR-5 ovarian
  TGI: > 100 µM
HL-60(TB) leukemia
  TGI: > 100 µM
NCI-H226 lung
  TGI: > 100 µM
BT-549 breast
  TGI: > 100 µM
MCF7 breast
  TGI: > 100 µM
SF-295 CNS
  TGI: > 100 µM
SR leukemia
  TGI: > 100 µM

## C=C1C(=O)O[C@@H]2C[C@]3(C)CC[C@]4(C)[C@H](CC[C@@H]5[C@@]6(C)CCC(=O)C(C)(C)[C@@H]6CC[C@]54C)[C@H]3[C@H]12
RXF 393 renal
  TGI: 34.3 µM
CAKI-1 renal
  TGI: 30.2 µM
OVCAR-5 ovarian
  TGI: 32.8 µM
HL-60(TB) leukemia
  TGI: 3.72 µM
NCI-H226 lung
  TGI: 38.4 µM
BT-549 breast
  TGI: 37.4 µM
MCF7 breast
  TGI: 21.4 µM
SF-295 CNS
  TGI: 33.6 µM
HCT-116 colon
  TGI: 31.3 µM
SR leukemia
  TGI: 36.5 µM

## FC1C2=C(SC1(F)F)C1CCC2C1 (configuration not stated)
RXF 393 renal
  TGI: > 100 µM
CAKI-1 renal
  TGI: > 100 µM
OVCAR-5 ovarian
  TGI: > 100 µM
HL-60(TB) leukemia
  TGI: > 100 µM
NCI-H226 lung
  TGI: > 100 µM
BT-549 breast
  TGI: > 100 µM
MCF7 breast
  TGI: > 100 µM
SF-295 CNS
  TGI: > 100 µM
HCT-116 colon
  TGI: > 100 µM
SR leukemia
  TGI: > 100 µM

## CCCCCCCCCCC1OC([C@@H](O)CC[C@H](O)C2CC[C@@H](CCCCCCCC(O)CC3=CC(C)OC3=O)O2)CCC1O (some centres not stated)
RXF 393 renal
  TGI: > 18.6 µM
CAKI-1 renal
  TGI: > 25 µM
OVCAR-5 ovarian
  TGI: > 25 µM
HL-60(TB) leukemia
  GI50: 4.47 µM
  TGI: > 25 µM
NCI-H226 lung
  TGI: > 25 µM
BT-549 breast
  GI50: 2.34 µM
  TGI: 7.53 µM and > 25 µM
MCF7 breast
  GI50: 1.34 µM
  TGI: > 25 µM
SF-295 CNS
  GI50: 4.31 µM
  TGI: > 25 µM
HCT-116 colon
  GI50: 6 µM
  TGI: > 25 µM
SR leukemia
  TGI: 16.5 µM

## CCCCON1C[C@H](OC(C)=O)C(OC(C)=O)[C@H](OC(C)=O)C1 (some centres not stated)
RXF 393 renal
  TGI: > 100 µM
CAKI-1 renal
  TGI: > 100 µM
HL-60(TB) leukemia
  TGI: > 100 µM
NCI-H226 lung
  TGI: > 100 µM
BT-549 breast
  TGI: > 100 µM
MCF7 breast
  TGI: > 100 µM
SF-295 CNS
  TGI: > 100 µM
HCT-116 colon
  TGI: > 100 µM
SR leukemia
  TGI: > 100 µM

## Cc1ccc2oc(=O)c(C(=O)Nc3nc(C45CC6CC(CC(C6)C4)C5)cs3)cc2c1
RXF 393 renal
  TGI: > 100 µM
CAKI-1 renal
  TGI: > 100 µM
OVCAR-5 ovarian
  TGI: > 100 µM
HL-60(TB) leukemia
  TGI: > 100 µM
NCI-H226 lung
  TGI: > 100 µM
BT-549 breast
  TGI: > 100 µM
MCF7 breast
  TGI: > 100 µM
SF-295 CNS
  TGI: > 100 µM
HCT-116 colon
  TGI: > 100 µM
SR leukemia
  TGI: > 100 µM
